In patent US5364623A, “Antibiotic produced by Bacillus subtilis ATCC 55422 capable of inhibiting bacteria” (Bristol-Myers Squibb Company, priority 1993, dated 1994):
Converted amounts (≈) assume the structure as drawn.

Legend:
[1] = tested on: Staphylococcus aureus SC-2400; experiment: Agar diffusion, S. aureus SC-2400; assay type: cell-based; settings: 25 μg per well, overnight at 37° C.
Method: (§1) (3) The effect of bacillaene on a wide spectrum of bacteria was determined using the agar diffusion method. The bacteria to be tested were grown in […] broth overnight at 37° C. This culture was used to inoculate […] agar using a standard pour plate method. A 1% inoculum of the overnight culture was used. Wells of 2 mm diameter were punched in the agar and bacillaene (25 μg) was loaded in each well. The plates were incubated overnight at 37° C. and lack of growth around the agar well was scored as inhibition by bacillaene of the growth of the organism.

[2] = tested on: Staphylococcus aureus 209P; experiment: Agar diffusion, S. aureus 209P; assay type: cell-based; settings: 25 μg per well, overnight at 37° C.
Method: as §1

Escherichia coli = experiment: MIC, liquid broth tube dilution, E. coli strains overall; assay type: cell-based
Method: (§2) (1) Determination of the minimum concentration of bacillaene required for total inhibition of growth (MIC) was performed using liquid H108 medium containing Bacto-Tryptone (10g); Bacto-yeast extract (5 g); NaCl (5 g); and distilled water (1 liter). The assays were performed in 13×100 mm glass tubes in a final volume of 0.5 ml. Two fold dilutions of the compound were utilized. The cultures were incubated at 37° C. in a test-tube rack on a shaker. Presence of turbidity was used as an indicator of growth. The tubes were read after 6-7 hours of incubation.

Escherichia coli K-10 = experiment: MIC, liquid broth tube dilution assay, E. coli K-10; assay type: cell-based; settings: H108 medium, 37° C., 6-7 hours
Method: as §2

[3] = tested on: Rabbit reticulocyte in vitro trans. sys.; experiment: In vitro protein synthesis, eucaryotic (rabbit reticulocyte) translation system; assay type: biochemical
[4] = tested on: Escherichia coli BAS-2006; experiment: MIC, liquid broth tube dilution assay, E. coli BAS-2006; assay type: cell-based; settings: H108 medium, 37° C., 6-7 hours
Method: as §2

Saccharomyces cervesiae = experiment: Growth of eukaryotic cells; assay type: cell-based
Escherichia coli SGB-888 = experiment: MIC, liquid broth tube dilution assay, E. coli SGB-888; assay type: cell-based; settings: H108 medium, 37° C., 6-7 hours
Method: as §2

Escherichia coli impB = experiment: MIC, liquid broth tube dilution assay, E. coli impB; assay type: cell-based; settings: H108 medium, 37° C., 6-7 hours
Method: as §2

[5] = tested on: Escherichia coli SGB-10857; experiment: MIC, liquid broth tube dilution assay, E. coli SGB-10857; assay type: cell-based; settings: H108 medium, 37° C., 6-7 hours
Method: as §2

[6] = tested on: Procaryotic in vitro transc.-transl. sys.; experiment: In vitro protein synthesis, procaryotic transcription-translation coupled system (35S incorporation); assay type: biochemical
From the text: A prokaryotic in vitro transcription-translation coupled system was used for these experiments (Promega Corporation, 2800, Woods Hollow Road, Madison, Wis.).

C/C(=C/C=C/C=C/C(C)C(=O)O)NC(=O)CC(O)\C(C)=C/C=C\C=C(C)\C=C\C=C/C=C/CNC(=O)C(O)CC(C)C (stereo not shown) [Bacillaene, bacillaene]
Growth Inhibition [1]: ++ (hazy) | Growth Inhibition [2]: ++ (hazy) | potency against certain strains of Escherichia coli (in words) (Escherichia coli): extremely potent | MIC (Escherichia coli K-10): 37.0 µg/mL (≈ 63.7 µM) | inhibition of eucaryotic in vitro protein translation system (in words) ([3]; at the concentrations tested): failed to inhibit | Inhibition of in vitro protein synthesis, rabbit reticulocyte in vitro trans. sys. ([3]; final conc. 0.75 μg/ml): < 7.0% | Inhibition of in vitro protein synthesis, rabbit reticulocyte in vitro trans. sys. ([3]; final conc. 1.5 μg/ml): < 7.0% | Inhibition of in vitro protein synthesis, rabbit reticulocyte in vitro trans. sys. ([3]; final conc. 6.0 μg/ml): < 7.0% | MIC [4]: 0.60 µg/mL (≈ 1.03 µM) | effect on growth of eukaryotic cells (in words) (Saccharomyces cervesiae): not observed to affect the growth | MIC (Escherichia coli SGB-888): 0.09 µg/mL (≈ 0.155 µM) | MIC (Escherichia coli impB): 0.50 µg/mL (≈ 0.861 µM) | MIC [5]: 5.0 µg/mL (≈ 8.61 µM) | inhibition of procaryotic protein synthesis (in words) ([6]; 35S incorporation into trichloroacetic-acid-precipitable polypeptides): potent inhibitor of procaryotic protein synthesis | Inhibition of in vitro protein synthesis, procaryotic in vitro transc.-transl. sys. ([6]; final conc. 0.75 μg/ml): > 88.0% | Inhibition of in vitro protein synthesis, procaryotic in vitro transc.-transl. sys. ([6]; final conc. 1.5 μg/ml): > 95.0%
